Assay results from patent US10131928B2, “Inositol biotransformation” (University Court of the University of St Andrews, priority 2013, dated 2018).
Like-named read-outs stand apart in the source and are kept apart here.

Key:
Format in all cases: biochemical
TbINO1 [1] = target: T1, TbINO1 (Trypanosoma brucei brucei, UniProt Q5QQ46); assay: biochemical
T1 construct: Hexa-His (N); made in house; host or cells: E. coli BL21 Rosetta (DE3)
T1 sequence (Q5QQ46 1-528): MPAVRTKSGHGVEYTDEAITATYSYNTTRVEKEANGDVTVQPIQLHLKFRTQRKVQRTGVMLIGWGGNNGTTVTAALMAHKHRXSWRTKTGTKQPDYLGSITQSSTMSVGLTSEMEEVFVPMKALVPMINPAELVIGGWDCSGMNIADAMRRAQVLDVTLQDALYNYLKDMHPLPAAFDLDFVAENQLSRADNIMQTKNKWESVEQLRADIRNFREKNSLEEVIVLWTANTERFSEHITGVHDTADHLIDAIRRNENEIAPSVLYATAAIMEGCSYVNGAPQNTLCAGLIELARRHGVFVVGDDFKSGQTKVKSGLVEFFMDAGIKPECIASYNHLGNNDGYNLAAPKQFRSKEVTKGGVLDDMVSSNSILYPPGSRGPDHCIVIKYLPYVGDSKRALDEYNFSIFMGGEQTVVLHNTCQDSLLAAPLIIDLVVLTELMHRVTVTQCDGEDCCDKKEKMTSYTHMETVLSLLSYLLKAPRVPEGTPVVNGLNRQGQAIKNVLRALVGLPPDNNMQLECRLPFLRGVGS
Protocol: (§1) An alternative reaction mixture consisted of 2 mM Tris-Ac (pH 9), 2 mM glucose-6-phosphate, 1 mM NAD^+, 1 mM DTT, 2 mM NH4Ac and 5 μg protein in a final volume of 20 μL. The reaction was incubated at 37° C. for 1 hr and terminated by heating at 100° C. for 10 min and the addition of 80 μL of 10 mM NaOH. For inhibitor studies the standard reaction mixture was prepared without glucose-6-phosphate, the inhibitor was added to the reaction and incubated on ice for 10 min prior to the addition of glucose-6-phosphate and subsequent incubation of 37° C. for 1 hr.
(§2) After quenching the reaction mix was analysed by high performance anion-exchange chromatography using a Dionex HPLC system with a CarboPacPA-1 column and PA-1 guard column (Dionex). The column was pre-equilibrated with 95% Buffer A (1 mM sodium hydroxide) and 5% Buffer B (1M sodium acetate+1 mM sodium hydroxide). An aliquot (20 μL) of the quenched reaction mixture was injected onto the column and eluted a linear gradient of 5-40% […], detected with pulsed amperometric detection and analysed with Chromeleon software (Dionex).
(§3) The TbINO1 was pre-incubated with potential inhibitor prior to the addition of glucose-6-phosphate or fructose-6-phosphate and quantification of inositol-3-phosphate and fructose-6-phosphate by HPLC.

TbINO1 [2] = target: T1, TbINO1; assay: biochemical; remark: listed apart in the source
Protocol: as §1, §2, §3

TbINO1 [3] = target: T1, TbINO1; assay: Compounds tested as substrates for TbINO1 in the standard reaction mixture, products separated by HPLC; conditions: tested as substrate, longer time periods; intermediate conversion to glucose-6-phosphate
Protocol: as §1
as §2, with “software (Dionex). The substrate glucose-6-phosphate and the product inositol-3-phosphate are clearly separated by this method. […]” for “software (Dionex).”

[4] = Table 2, inhibitor pre-incubated with recombinant TbINO1, fructose-6-phosphate as substrate, read-out: IC50 PGI activity
[5] = Table 2, inhibitor pre-incubated with recombinant TbINO1, glucose-6-phosphate as substrate, read-out: IC50 INO1 activity
[6] = Table 3, metabolic intermediates, pre-incubated, fructose-6-phosphate as substrate, read-out: IC50 PGI activity
[7] = Table 3, metabolic intermediates, pre-incubated, glucose-6-phosphate as substrate, read-out: IC50 INO1 activity

Compound	IC50 (TbINO1 [1]; [4])	IC50 (TbINO1 [2]; [5])	IC50 (TbINO1 [1])	IC50 (TbINO1 [2])	inhibition of PGI (glucose-6-phosphate isomerase) activity (TbINO1 [1])	inhibition of INO1 activity (TbINO1 [2])	IC50 (TbINO1 [1]; [6])	IC50 (TbINO1 [2]; [7])	conversion to inositol-3-phosphate by TbINO1 (TbINO1 [3])
COC1O[C@H](COP(=O)(O)O)[C@@H](O)[C@H](O)[C@H]1O (some centres unmarked) [1-OMe-Glucose-6-P, glucose-1-O-methyl-6-phospahte]	2.5 mM	2.5 mM							
O=P(O)(O)OC[C@H]1OC(O)C[C@@H](O)[C@@H]1O (some centres unmarked) [2-Deoxyglucose-6-P]			4 mM	4 mM					
O=CC[C@@H](O)[C@H](O)[C@H](O)CO [2-Deoxyglucose]			> 10 mM	> 10 mM					
O=P(O)(O)OC[C@H]1OC(O)[C@H](F)[C@@H](O)[C@@H]1O (some centres unmarked) [2-F-Glucose-6-P, 2-fluoro-glucose-6-phospahte]	1 mM	1 mM							
O=P(O)(O)OC[C@H]1OC(O)[C@H](O)[C@@H](F)[C@@H]1O (some centres unmarked) [3-F-Glucose-6-P, 3-fluoro-glucose-6-phospahte]			2.5 mM	2.5 mM					
O=P(O)(O)OC[C@H]1OC(O)[C@H](O)[C@@H](O)[C@@H]1F (some centres unmarked) [4-F-Glucose-6-P, 4-fluoro-glucose-6-phospahte]			> 10 mM	> 10 mM					
O=C(O)[C@H](O)[C@@H](O)[C@H](O)[C@H](O)COP(=O)(O)O [6-phosphogluconic acid]			> 10 mM	> 10 mM	No inhibition	No inhibition			
CC(=O)N[C@H]1C(OP(=O)(O)O)O[C@H](CO)[C@@H](O)[C@@H]1O (some centres unmarked) [Acetylglucosamine-1-P, acetylglucosamine-1-phosphate]	> 10 mM	> 10 mM			No inhibition	No inhibition			
CC(=O)N[C@H]1C(O)O[C@H](COP(=O)(O)O)[C@@H](O)[C@@H]1O (some centres unmarked) [Acetylglucosamine-6-P, acetylglucosamine-6-phosphate]	> 10 mM	> 10 mM			No inhibition	No inhibition			
O=C(CO)COP(=O)(O)O [DHAP]					Inhibition was observed	Inhibition was observed	3 mM	3 mM	
O=C(CO)CO [DHA]					no inhibition	no inhibition	> 10 mM	> 10 mM	
O=C[C@H](O)COP(=O)(O)O [GAP]					Inhibition was observed	Inhibition was observed	2 mM	2 mM	
O=C[C@H](O)[C@@H](O)[C@@H](O)[C@H](O)COP(=O)(O)O [Galactose-6-P, galactose-6-phosphate]			> 10 mM	> 10 mM	No inhibition	No inhibition			
O=P(O)(O)O[C@H]1O[C@H](CO)[C@@H](O)[C@H](O)[C@H]1O [Glucose-1-P, glucose-1-phosphate]	> 10 mM	> 10 mM			No inhibition	No inhibition			
O=CC(O)CO (centres unmarked) [Glyceraldehyde, glyceraldehyde]			> 10 mM	> 10 mM	no inhibition	no inhibition			
O=P(O)(O)OCC(O)CO (centres unmarked) [Glycerophosphate]	> 10 mM	> 10 mM			No inhibition	No inhibition			
O=C[C@@H](O)[C@@H](O)[C@H](O)[C@H](O)COP(=O)(O)O [Mannose-6-P, mannose-6-phosphate]			> 10 mM	> 10 mM	No inhibition	No inhibition			
O=C(O)CC(=O)C(=O)O [OAA]					Inhibition was observed	Inhibition was observed	2 mM	1.5 mM	
C=C(OP(=O)(O)O)C(=O)O [PEP]					No inhibition	No inhibition	> 10 mM	> 10 mM	
CC(=O)C(=O)O [Pyruvate, pyruvate]			> 10 mM	> 10 mM					
CCCC(CCC)C(=O)O [VPA]					No inhibition	No inhibition	> 10 mM	> 10 mM	
O=C(CO)[C@@H](O)[C@H](O)[C@H](O)COP(=O)(O)O [fructose-6-phosphate]									quantitative conversion
